The text below walks through data of PubChem BioAssay (NCI).

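Step 1: Grow cells in 96-well plates. Step 2: Expose to compound for 48 hours at 5 concentrations. Step 3: Interpolate endpoints linearly; if unreached, use highest concentration. TGI is the concentration that stops growth completely.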

Some test systems named below: SK-MEL-28 melanoma; SN12C renal; RXF 393 renal; OVCAR-3 ovarian; ACHN renal; HT29 colon; NCI-H23 lung; TK-10 renal; T-47D breast; SF-295 CNS; NCI-H522 lung; HCT-116 colon; SR leukemia; SF-268 CNS; COLO 205 colon; MCF7 breast; LOX IMVI melanoma; OVCAR-4 ovarian.
What all share (experiment): growth of human tumour cells (NCI), 48 h

For `COc1ccc2c(c1)/C(=C/c1c(O)[nH]c(=S)[nH]c1=O)C=N2`, the TGI is over 100 µM with SK-MEL-28 melanoma; over 100 µM in the experiment on SN12C renal; 96.9 µM in the experiment on RXF 393 renal; over 100 µM with OVCAR-3 ovarian; over 100 µM in the experiment with ACHN renal; over 100 µM with HT29 colon. Besides, the TGI with NCI-H23 lung, in the experiment with TK-10 renal, with T-47D breast, in the experiment with SF-295 CNS, with NCI-H522 lung and with HCT-116 colon was over 100 µM throughout. Further, the TGI in the experiment on SR leukemia is over 100 µM; in the experiment on SF-268 CNS, 61.8 µM; with COLO 205 colon, over 100 µM; in the experiment with MCF7 breast it was over 100 µM; with LOX IMVI melanoma, over 100 µM; in the experiment on OVCAR-4 ovarian it was over 100 µM.
On to `C#CCOC(=O)C(N)CC(N)=O` (configuration not stated), for which the TGI with SK-MEL-28 melanoma was over 100 µM; with SN12C renal, over 100 µM; in the experiment on RXF 393 renal it was over 100 µM; in the experiment with OVCAR-3 ovarian, over 100 µM; in the experiment on ACHN renal, over 100 µM; in the experiment with HT29 colon it was over 31.6 µM. The TGI with NCI-H23 lung, in the experiment with TK-10 renal, with T-47D breast, with SF-295 CNS, with NCI-H522 lung and with HCT-116 colon was over 100 µM throughout. Further, the TGI with SR leukemia, in the experiment on SF-268 CNS, with COLO 205 colon, in the experiment on MCF7 breast, in the experiment with LOX IMVI melanoma and in the experiment on OVCAR-4 ovarian was over 100 µM throughout.
For the compound `O=C1c2ccccc2C(=O)N1/N=C1/SC(=Nc2ccccc2)C(=Nc2ccccc2)N1c1ccccc1`, the TGI in the experiment with SK-MEL-28 melanoma was over 69 µM; in the experiment on SN12C renal, over 100 µM; in the experiment with RXF 393 renal, 14.3 µM; in the experiment with OVCAR-3 ovarian, over 100 µM; with ACHN renal, over 100 µM; with HT29 colon, over 100 µM. Further, the TGI in the experiment on NCI-H23 lung is over 88.6 µM; with TK-10 renal it was over 100 µM; with T-47D breast, over 100 µM; in the experiment with SF-295 CNS, over 100 µM; with NCI-H522 lung it was over 100 µM; in the experiment on HCT-116 colon, over 100 µM. The TGI in the experiment with SR leukemia is over 31.6 µM; with SF-268 CNS, over 100 µM; with COLO 205 colon, over 100 µM; in the experiment with MCF7 breast, over 100 µM; with LOX IMVI melanoma, over 100 µM; in the experiment on OVCAR-4 ovarian it was over 100 µM.
As for `CC(C)=CCC[C@@H](C)[C@H]1CC[C@@]2(C)[C@@H]3CC[C@H]4C(C)(C)[C@@H](O)CC[C@@]45C[C@@]35CC[C@]12C`, the TGI in the experiment with SK-MEL-28 melanoma is over 100 µM; in the experiment on SN12C renal it was 41.8 µM; in the experiment on RXF 393 renal it was 45.1 µM; in the experiment on OVCAR-3 ovarian it was over 100 µM; in the experiment with ACHN renal it was over 73.1 µM; in the experiment on HT29 colon it was over 100 µM. Further, the TGI is 50.7 µM in the experiment on NCI-H23 lung; over 100 µM in the experiment with TK-10 renal; over 100 µM in the experiment with T-47D breast; over 78.7 µM with SF-295 CNS; 49.3 µM in the experiment on NCI-H522 lung; over 77.9 µM with HCT-116 colon. Further, the TGI is over 67.1 µM in the experiment with SR leukemia; over 76.4 µM with SF-268 CNS; over 100 µM with COLO 205 colon; over 100 µM with MCF7 breast; 56.5 µM in the experiment with LOX IMVI melanoma; over 100 µM in the experiment on OVCAR-4 ovarian.
